Measured values from patent US20240300975A1, “DIMETHYL-SUBSTITUTED THIAZOLOLACTAM COMPOUND AND USE THEREOF” (D3 Bio (Wuxi) Co., Ltd., priority 2021, published 2024).

What was measured:
[1] = target: ERK1 (Homo sapiens (Human), UniProt P27361); experiment: In vitro ERK1 kinase activity assay (33P-ATP, filter-binding); type: biochemical
Experimental: The ability of compounds to inhibit ERK1 and ERK2 kinase activity was measured.
20 mM Hepes (pH 7.5), 10 mM MgCl2, 1 mM ethylenebis(oxyethylenenitrilo)tetraacetic acid (EGTA), 0.02% Brij35, 0.02 mg/mL bovine serum albumin (BSA), 0.1 mM Na3VO4, 2 mM dithiothreitol (DTT), 1% DMSO.
The assay compound was dissolved in 100% DMSO to prepare a stock solution of specific concentration. The compound was serially diluted in DMSO solution using Integra Viaflo Assist smart pipette.
• a) The substrate MBP was prepared in freshly prepared reaction buffer; • b) ERK1 (or ERK2) kinase was added to the above-mentioned MBP solution and mixed gently; • c) The compound dissolved in 100% DMSO was added to the kinase reaction system using ultrasound technology (Echo550; nanoliter range), and the mixture was incubated at room temperature for 20 minutes; • d)^33P-ATP (specific concentration of […]) was added to the reaction system, and the reaction was started at this time; • e) The mixture was incubated at room temperature for 2 hours; • f) The amount of radioactivity was detected by filter-binding method; • g) ERK1 (or ERK2) kinase activity was calculated as the ratio of the remaining kinase activity in the assay sample to the kinase activity of the control group (treated by DMSO).
Curve was fitted using Prism (GraphPad software) and IC50 values were calculated.

[2] = In vivo PK study in SD rats; details: male SD rats
Experimental: Male SD rats were used as assay animals. After a single administration, the plasma concentration of the compound was measured and the pharmacokinetic behavior was evaluated.
Six healthy adult male SD rats were selected, wherein 3 rats were in an intravenous injection group and 3 rats were in an oral group. The vehicle in the intravenous injection group was 5% DMSO+95% (20% HP-β-CD). The compound to be assayed was mixed with an appropriate amount of vehicle for intravenous injection, vortexed and sonicated to prepare a clear solution of 0.2 mg/mL. The clear solution was filtered by a microporous membrane, and then ready for use. The vehicle in the oral group was 5% DMSO+95% (20% HP-β-CD). The compound to be assayed was mixed with the vehicle, vortexed and sonicated to prepare a solution of 1 mg/mL. SD rats were administered 1 mg/kg intravenously or 10 mg/kg orally, and then whole blood was collected for a certain period. Plasma was prepared. The drug concentration was analyzed by LC-MS/MS method, and the pharmacokinetic parameters were calculated by Phoenix WinNonlin software (Pharsight, USA).

[3] = In vivo PK study in beagle dogs; details: male beagle dogs
Experimental: Male beagle dogs were used as assay animals. After a single administration, the plasma concentration of the compound was measured and the pharmacokinetic behavior was evaluated.
Five healthy adult male beagle dogs were selected, wherein 2 were in an intravenous injection group, and 3 were in an oral group. The vehicle in the intravenous injection group was 5% DMSO+95% (20% HP-β-CD). The compound to be assayed was mixed with an appropriate amount of vehicle for intravenous injection, and dissolved with stirring to prepare a clear solution of 0.4 mg/mL. The clear solution was filtered by a microporous membrane, and then ready for use. The vehicle in the oral group was 5% DMSO+95% (20% HP-β-CD). The compound to be assayed was mixed with the vehicle, and dissolved with stirring to prepare a solution of 0.3 mg/mL. Cynomolgus monkeys were administered 1 mg/kg intravenously or 3 mg/kg orally, and then whole blood was collected for a certain period. Plasma was prepared. The drug concentration was analyzed by LC-MS/MS method, and the pharmacokinetic parameters were calculated by Phoenix WinNonlin software (Pharsight, USA).

[4] = In vivo PK study in mice; details: female BALB/c mice
Source text: Female BALB/c mice were used as assay animals to determine the blood concentration of the compound and evaluate the pharmacokinetic behavior after a single administration.
Four healthy adult female BALB/c mice were selected, wherein 2 mice were in an intravenous injection group and 2 mice were in an oral group. The vehicle in the intravenous injection group was 5% DMSO+95% (20% HP-β-CD). The compound to be assayed was mixed with an appropriate amount of vehicle for intravenous injection, vortexed and sonicated to prepare a clear solution of 0.5 mg/mL. The clear solution was filtered by a microporous membrane, and then ready for use. The vehicle in the oral group was 5% DMSO+95% (20% HP-β-CD). The compound to be assayed was mixed with the vehicle, vortexed and sonicated to prepare a solution of 0.3 mg/mL. Mice were administered 1 mg/kg intravenously or 3 mg/kg orally, and then whole blood was collected for a certain period. Plasma was prepared. The drug concentration was analyzed by LC-MS/MS method, and the pharmacokinetic parameters were calculated by Phoenix WinNonlin software (Pharsight, USA).

ERK1, sequence (P27361 whole entry): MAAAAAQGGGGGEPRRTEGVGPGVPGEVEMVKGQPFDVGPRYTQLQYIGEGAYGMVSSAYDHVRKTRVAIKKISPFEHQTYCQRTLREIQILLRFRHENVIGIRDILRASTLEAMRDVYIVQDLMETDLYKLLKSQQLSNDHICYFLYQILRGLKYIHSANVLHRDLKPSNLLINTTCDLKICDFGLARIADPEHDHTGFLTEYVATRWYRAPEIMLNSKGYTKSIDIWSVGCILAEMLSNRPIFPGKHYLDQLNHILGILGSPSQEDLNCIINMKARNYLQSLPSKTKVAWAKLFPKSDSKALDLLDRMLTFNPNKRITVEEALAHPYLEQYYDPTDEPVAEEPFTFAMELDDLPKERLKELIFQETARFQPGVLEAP

**Q.** What does the source list for `Cc1cccc(CN2C(=O)c3nc(-c4nc(Nc5ccnn5C)ncc4C)sc3C2(C)C)n1` [WX001]?
**A.** IC50 [1]: 1.2 nM; Oral DNAUC (AUCPO/Dose) ([2]; 10 mg/kg orally): 302.12 nM · h/mpk; clearance ([2]; rat, plasma, iv, 1 mg/kg intravenously): 24.8 mL/min/kg; Vd ([2]; rat, plasma, iv, 1 mg/kg intravenously, read-out: Vdss): 1.06 L/kg; bioavailability ([2]; rat, plasma, oral, 1 mg/kg intravenously / 10 mg/kg orally, read-out: F % (oral bioavailability)): 21%; half-life ([2]; rat, plasma, single administration): 2.6 h; Cmax ([2]; rat, po, 10 mg/kg orally, plasma): 1010 nM; clearance ([3]; dog, plasma, iv, 1 mg/kg intravenously): 19 mL/min/kg; Vd ([3]; dog, plasma, iv, 1 mg/kg intravenously, read-out: Vdss): 1.94 L/kg; bioavailability ([3]; dog, plasma, oral, 1 mg/kg intravenously / 3 mg/kg orally, read-out: F % (oral bioavailability)): 52%; half-life ([3]; dog, plasma, single administration): 1.09 h; Cmax ([3]; dog, po, 3 mg/kg orally, plasma): 1230 nM; Oral DNAUC (AUCPO/Dose) ([3]; 3 mg/kg orally): 1099.27 nM · h/mpk; Oral DNAUC (AUCPO/Dose) ([4]; 3 mg/kg orally): 787.18 nM · h/mpk; clearance ([4]; mouse, plasma, iv, 1 mg/kg intravenously): 27.5 mL/min/kg; Vd ([4]; mouse, plasma, iv, 1 mg/kg intravenously, read-out: Vdss): 1.6 L/kg; bioavailability ([4]; mouse, plasma, oral, 1 mg/kg intravenously / 3 mg/kg orally, read-out: F % (oral bioavailability)): 62%; half-life ([4]; mouse, plasma, single administration): 1.29 h; Cmax ([4]; mouse, po, 3 mg/kg orally, plasma): 2120 nM
